Reference: patent JPH07118153A, “抗ウレアーゼ剤” (Eisai Co Ltd, priority 1993, dated 1995)

What was measured:
[1] = molecular target: T1, H. pylori-produced urease [H.pylori産生ウレアーゼ] (Helicobacter pylori, UniProt P69996); details: cited from earlier work; for inhibition of H. pylori-produced urease: Antimicrobial Agents and Chemotherapy, 37(4), 769-774, 1993
Target sequence in this assay (P69996 whole entry): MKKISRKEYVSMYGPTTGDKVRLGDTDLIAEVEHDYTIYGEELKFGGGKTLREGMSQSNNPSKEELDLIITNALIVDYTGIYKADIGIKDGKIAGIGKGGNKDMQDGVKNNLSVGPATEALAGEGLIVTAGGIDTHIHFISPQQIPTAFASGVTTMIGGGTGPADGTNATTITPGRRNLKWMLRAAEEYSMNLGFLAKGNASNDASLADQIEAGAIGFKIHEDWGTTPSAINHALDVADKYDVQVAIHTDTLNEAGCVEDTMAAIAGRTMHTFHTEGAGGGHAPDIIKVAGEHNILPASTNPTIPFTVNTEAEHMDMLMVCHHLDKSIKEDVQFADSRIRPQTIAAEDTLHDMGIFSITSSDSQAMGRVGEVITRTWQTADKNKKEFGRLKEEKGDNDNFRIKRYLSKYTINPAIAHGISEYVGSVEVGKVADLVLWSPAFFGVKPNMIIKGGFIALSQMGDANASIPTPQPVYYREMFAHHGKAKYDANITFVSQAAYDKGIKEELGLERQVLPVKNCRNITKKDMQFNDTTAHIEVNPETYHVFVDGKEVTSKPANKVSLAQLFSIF
Target sequence in this assay (P14916 whole entry, further chain): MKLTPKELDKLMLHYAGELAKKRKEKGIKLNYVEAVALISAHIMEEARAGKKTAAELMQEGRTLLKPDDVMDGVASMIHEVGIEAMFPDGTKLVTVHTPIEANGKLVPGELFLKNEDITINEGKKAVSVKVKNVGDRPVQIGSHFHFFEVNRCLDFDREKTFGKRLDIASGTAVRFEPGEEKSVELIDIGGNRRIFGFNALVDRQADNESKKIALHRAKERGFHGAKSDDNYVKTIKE

[2] = molecular target: T1, H. pylori-produced urease [H.pylori産生ウレアーゼ]; type: biochemical, Helicobacter pylori (ATCC43504)
Target sequence in this assay (P69996 whole entry, looked up): as the sequence (P69996 whole entry) above

[3] = molecular target: jack bean urease [なた豆ウレアーゼ] (Canavalia ensiformis, UniProt P07374); test: Inhibition of jack bean urease (inhibition test example 1); type: biochemical; details: from tables 2 and 4
Chain of jack bean urease [なた豆ウレアーゼ] (P07374 whole entry, looked up): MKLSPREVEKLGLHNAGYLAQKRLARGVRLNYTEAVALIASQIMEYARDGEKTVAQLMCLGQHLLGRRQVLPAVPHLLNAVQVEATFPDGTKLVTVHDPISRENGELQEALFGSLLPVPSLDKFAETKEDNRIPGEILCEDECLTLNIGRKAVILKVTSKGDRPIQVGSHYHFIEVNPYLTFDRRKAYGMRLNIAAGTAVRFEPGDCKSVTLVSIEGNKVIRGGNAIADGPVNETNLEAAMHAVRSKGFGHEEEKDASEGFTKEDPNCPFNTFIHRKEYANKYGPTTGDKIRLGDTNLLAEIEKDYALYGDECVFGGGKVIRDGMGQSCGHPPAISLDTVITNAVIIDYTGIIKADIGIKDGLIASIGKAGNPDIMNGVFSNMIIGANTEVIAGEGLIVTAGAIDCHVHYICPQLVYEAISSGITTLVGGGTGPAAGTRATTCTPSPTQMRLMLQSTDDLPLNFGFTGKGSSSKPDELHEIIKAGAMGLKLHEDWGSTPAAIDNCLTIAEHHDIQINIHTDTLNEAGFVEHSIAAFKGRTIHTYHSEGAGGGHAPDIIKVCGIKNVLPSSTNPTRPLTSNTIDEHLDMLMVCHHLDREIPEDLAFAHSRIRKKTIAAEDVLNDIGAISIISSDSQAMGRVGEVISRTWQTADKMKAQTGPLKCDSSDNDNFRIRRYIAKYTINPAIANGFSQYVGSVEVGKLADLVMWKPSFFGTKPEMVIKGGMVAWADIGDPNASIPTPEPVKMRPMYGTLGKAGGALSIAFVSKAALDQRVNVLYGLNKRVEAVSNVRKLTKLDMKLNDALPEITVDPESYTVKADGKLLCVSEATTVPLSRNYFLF

[4] = test system: a wide range of ureases [幅広い種類のウレアーゼ]; test: Urease inhibition across ureases (tables 2 and 4 taken together); type: biochemical; details: from tables 2 and 4
[5] = Acute toxicity test, single dose, intravenous and oral; type: in vivo, Slc:SD rats and Slc:ICR mice; details: rats and mice

SMILES | inhibition of H. pylori-produced urease [1] | anti-urease activity relative to acetohydroxamic acid ([1]; disclosed in Antimicrobial Agents and Chemotherapy, compared with acetohydroxamic acid) [fold] | H. pylori-produced urease inhibitory action [2] | activity relative to control substance (times stronger) ([2]; H. pylori-produced urease, control substance acetohydroxamic acid) [fold] | inhibitory activity on H. pylori-produced urease, compared with reference substances ([2]; versus acetohydroxamic acid, caprylohydroxamic acid, nicotinohydroxamic acid, benzohydroxamic acid, omeprazole and lansoprazole, from tables 2, 3 and 4) | inhibitory action on jack bean urease [3] | inhibitory action on a wide range of ureases [4] | selectivity ratio ([5]; in vivo, intravenous and oral, multiple of the clinical dose by oral administration, read-out: LD50 values relative to the oral clinical dose) | safety ([5]; judged from LD50 values)
Cc1c(OCC(F)(F)F)ccnc1C[S+]([O-])c1nc2ccccc2[nH]1 (stereo not shown) [ランソプラゾール, 2−[3−メチル−4−(2,2,2−トリフルオロエトキシ)ピリジン−2−イル]メチルスルフィニル−1H−ベンズイミダゾール] | 阻害する | ~2 | – | – | – | – | – | – | –
COc1ccc2[nH]c([S+]([O-])Cc3ncc(C)c(OC)c3C)nc2c1 (stereo not shown) [オメプラゾール, 5−メトキシ−2−(4−メトキシ−3,5−ジメチルピリジン−2−イル)メチルスルフィニル−1H−ベンズイミダゾール] | 阻害する | – | – | – | – | – | – | – | –
COCCCOc1ccnc(C[S+]([O-])c2nc3ccccc3[nH]2)c1C (stereo not shown) [本発明化合物, 2−[4−(3−メトキシプロポキシ)−3−メチルピリジン−2−イル]メチルスルフィニル−1H−ベンズイミダゾール] | – | – | 阻害作用を有している | ~100 | 優れた阻害活性を有する | 阻害作用も有しており | 阻害作用を示した | ≥ 5000 | 安全性は極めて高い
